Laboratory results from patent US20230124361A1, “SMALL MOLECULE STING ANTAGONISTS” (CURADEV PHARMA PVT. LTD., priority 2020, published 2023).

Molecular target: T1, STING (Homo sapiens, UniProt Q86WV6, G230A/H232R/R293Q/R71H)
T1 construct: host or cells: THP1-Dual cells (human THP-1 monocyte line with Lucia/SEAP reporters)
Assay: Reporter gene expression assay in THP1-Dual cells (IRF pathway Lucia luciferase, 2',3'-cGAMP stimulation)
Format: cell-based
Settings: 10 min preincubation, 5 μM 2',3'-cGAMP, 20 hr, IRF reporter QUANTI-Luc, read-out: THP-1 (HAQ) Activity
Procedure, shortened: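 THP1-Dual cells preincubated 10 min with compound, then stimulated with 5 μM 2′,3′-cGAMP for 20 hr. Secreted Lucia luciferase (IRF reporter) measured in supernatant by luminescence; IC50 reported as ranges (A ≤1 μM, B >1–≤10 μM, C >10 μM).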

T1 sequence (Q86WV6 whole entry R71H/G230A/H232R/R293Q): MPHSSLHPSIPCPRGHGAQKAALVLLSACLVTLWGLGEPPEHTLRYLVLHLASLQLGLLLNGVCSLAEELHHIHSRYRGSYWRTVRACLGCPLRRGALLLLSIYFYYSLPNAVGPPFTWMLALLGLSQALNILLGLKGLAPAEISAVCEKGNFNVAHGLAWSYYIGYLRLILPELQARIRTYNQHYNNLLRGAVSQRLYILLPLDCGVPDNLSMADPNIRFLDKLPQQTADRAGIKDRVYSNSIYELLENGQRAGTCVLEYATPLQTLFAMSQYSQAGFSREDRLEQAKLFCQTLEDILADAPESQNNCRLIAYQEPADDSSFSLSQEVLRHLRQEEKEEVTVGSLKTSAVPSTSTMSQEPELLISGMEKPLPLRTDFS

IC50	Structure (SMILES)
1000 to 10000 nM	O=C(Nc1ccc2c(c1)OCC(=O)N2CCc1ccccc1Cl)Nc1ccc2cc[nH]c2c1 [Example 110, 1-(4-(2-chlorophenethyl)-3-oxo-3,4-dihydro-2H-benzo[b][1,4]oxazin-7-yl)-3-(1H-indol-6-yl)urea]
1000 to 10000 nM	O=C(Nc1ccc2c(c1)OCC(=O)N2Cc1ccc(F)c(Cl)c1)Nc1ccc2cc[nH]c2c1 [Example 111, 1-(4-(3-chloro-4-fluorobenzyl)-3-oxo-3,4-dihydro-2H-benzo[b][1,4]oxazin-7-yl)-3-(1H-indol-6-yl)urea]
≤ 1000 nM	O=C(Nc1ccc2c(c1)OCC(=O)N2Cc1cc(F)cc(C(F)(F)F)c1)Nc1ccc2cc[nH]c2c1 [Example 112, 1-(4-(3-fluoro-5-(trifluoromethyl)benzyl)-3-oxo-3,4-dihydro-2H-benzo[b][1,4]oxazin-7-yl)-3-(1H-indol-6-yl)urea]
1000 to 10000 nM	O=C(Nc1ccc2c(c1)OCC(=O)N2Cc1ccccc1C(F)(F)F)Nc1ccc2cc[nH]c2c1 [Example 113, 1-(1H-indol-6-yl)-3-(3-oxo-4-(2-(trifluoromethyl)benzyl)-3,4-dihydro-2H-benzo[b][1,4]oxazin-7-yl)urea]
≤ 1000 nM	O=C(Nc1ccc2c(c1)OCC(=O)N2Cc1ccc2c(c1)OCO2)Nc1ccc2cc[nH]c2c1 [Example 114, 1-(4-(benzo[d][1,3]dioxol-5-ylmethyl)-3-oxo-3,4-dihydro-2H-benzo[b][1,4]oxazin-7-yl)-3-(1H-indol-6-yl)urea]
1000 to 10000 nM	COc1ccc(OC)c(CN2C(=O)COc3cc(NC(=O)Nc4ccc5cc[nH]c5c4)ccc32)c1 [Example 115, 1-(4-(2,5-dimethoxybenzyl)-3-oxo-3,4-dihydro-2H-benzo[b][1,4]oxazin-7-yl)-3-(1H-indol-6-yl)urea]
1000 to 10000 nM	N#Cc1cccc(CN2C(=O)COc3cc(NC(=O)Nc4ccc5cc[nH]c5c4)ccc32)c1 [Example 116, l-(4-(3-cyanobenzyl)-3-oxo-3,4-dihydro-2H-benzo[b][1, 4]oxazin-7-yl)-3-(1H-indol-6-yl)urea]
≤ 1000 nM	O=C(Nc1ccc2c(c1)OCC(=O)N2Cc1nc2ccccc2s1)Nc1ccc2cc[nH]c2c1 [Example 117, 1-(4-(benzo[d]thiazol-2-ylmethyl)-3-oxo-3,4-dihydro-2H-benzo[b][1,4]oxazin-7-yl)-3-(1H-indol-6-yl)urea]
> 10000 nM	O=C(Nc1ccc2c(c1)OCC(=O)N2Cc1ccc(C(=O)O)cn1)Nc1ccc2cc[nH]c2c1 [Example 118, 6-((7-(3-(1H-indol-6-yl)ureido)-3-oxo-2,3-dihydro-4H-benzo[b][1,4]oxazin-4-yl)methyl)nicotinic acid]
1000 to 10000 nM	O=C(Nc1ccc2c(c1)OCC(=O)N2Cc1ccc2nsnc2c1)Nc1ccc2cc[nH]c2c1 [Example 119, 1-(4-(benzo[c][1,2,5]thiadiazol-5-ylmethyl)-3-oxo-3,4-dihydro-2H-benzo[b][1,4]oxazin-7-yl)-3-(1H-indol-6-yl)urea]
1000 to 10000 nM	N#Cc1ccc(CN2C(=O)COc3cc(NC(=O)Nc4ccc5cc[nH]c5c4)ccc32)c(F)c1 [Example 120, 1-(4-(4-cyano-2-fluorobenzyl)-3-oxo-3,4-dihydro-2H-benzo[b][1,4]oxazin-7-yl)-3-(1H-indol-6-yl)urea]
1000 to 10000 nM	O=C(Nc1ccc2c(c1)OCC(=O)N2Cc1nc(-c2ccccc2)no1)Nc1ccc2cc[nH]c2c1 [Example 121, 1-(1H-indol-6-yl)-3-(3-oxo-4-((3-phenyl-1,2,4-oxadiazol-5-yl)methyl)-3,4-dihydro-2H-benzo[b][1,4]oxazin-7-yl)urea]
1000 to 10000 nM	CS(=O)(=O)c1cc(Cl)ccc1CN1C(=O)COc2cc(NC(=O)Nc3ccc4cc[nH]c4c3)ccc21 [Example 122, 1-(4-(4-chloro-2-(methylsulfonyl)benzyl)-3-oxo-3,4-dihydro-2H-benzo[b][1,4]oxazin-7-yl)-3-(1H-indol-6-yl)urea]
1000 to 10000 nM	N#Cc1ccc(CN2C(=O)COc3cc(NC(=O)Nc4ccc5cc[nH]c5c4)ccc32)cc1 [Example 123, 1-(4-(4-cyanobenzyl)-3-oxo-3,4-dihydro-2H-benzo[b][1,4]oxazin-7-yl)-3-(1H-indol-6-yl)urea]
≤ 1000 nM	COc1ccc(F)c(CN2C(=O)CSc3cc(NC(=O)Nc4ccc5cc[nH]c5c4)ccc32)c1Cl [Example 124, l-(4-(2-chloro-6-fluoro-3-methoxybenzyl)-3-oxo-3,4-dihydro-2H-benzo[b][1, 4]thiazin-7-yl)-3-(1H-indol-6-yl)urea]
≤ 1000 nM	O=C(Nc1ccc2c(c1)SCC(=O)N2Cc1c(F)ccc(O)c1Cl)Nc1ccc2cc[nH]c2c1 [Example 125, l-(4-(2-chloro-6-fluoro-3-hydroxybenzyl)-3-oxo-3,4-dihydro-2H-benzo[b][1, 4]thiazin-7-yl)-3-(1H-indol-6-yl)urea]
≤ 1000 nM	COc1cc(F)c(CN2C(=O)CSc3cc(NC(=O)Nc4ccc5cc[nH]c5c4)ccc32)c(F)c1 [Example 126, 1-(4-(2,6-difluoro-4-methoxybenzyl)-3-oxo-3,4-dihydro-2H-benzo[b][1, 4]thiazin-7-yl)-3-(1H-indol-6-yl)urea]
1000 to 10000 nM	O=C(Nc1ccc2c(c1)SCC(=O)N2Cc1c(F)cc(O)cc1F)Nc1ccc2cc[nH]c2c1 [Example 127, 1-(4-(2,6-difluoro-4-hydroxybenzyl)-3-oxo-3,4-dihydro-2H-benzo[b][1, 4]thiazin-7-yl)-3-(1H-indol-6-yl)urea]
> 10000 nM	O=C(Nc1ccc2c(c1)OCC(=O)N2Cc1ccc(-n2cncn2)cc1)Nc1ccc2cc[nH]c2c1 [Example 128, 1-(4-(4-(1H-1,2,4-triazol-1-yl)benzyl)-3-oxo-3,4-dihydro-2H-benzo[b][1, 4]oxazin-7-yl)-3-(1H-indol-6-yl)urea]
≤ 1000 nM	O=C(Nc1ccc2c(c1)OCC(=O)N2Cc1ccc2nonc2c1)Nc1ccc2cc[nH]c2c1 [Example 129, l-(4-(benzo[c][1,2,5]oxadiazol-5-ylmethyl)-3-oxo-3,4-dihydro-2H-benzo[b][1,4]oxazin-7-yl)-3-(1H-indol-6-yl)urea]
> 10000 nM	O=C(NCc1ccco1)Nc1ccc2c(c1)OCC(=O)N2Cc1ccccc1 [Example 130, 1-(4-benzyl-3-oxo-3,4-dihydro-2H-benzo[b][1, 4]oxazin-7-yl)-3-(furan-2-ylmethyl)urea]
> 10000 nM	O=C(Nc1ccc2c(c1)OCC(=O)N2Cc1ccccc1)Nc1c[nH]nc1-c1ccc(Cl)cc1 [Example 131, 1-(4-benzyl-3-oxo-3,4-dihydro-2H-benzo[b][1, 4]oxazin-7-yl)-3-(3-(4-chlorophenyl)-1H-pyrazol-4-yl)urea]
1000 to 10000 nM	O=C(NCc1cc[nH]c1)Nc1ccc2c(c1)OCC(=O)N2Cc1ccccc1 [Example 132, 1-((1H-pyrrol-3-yl)methyl)-3-(4-benzyl-3-oxo-3,4-dihydro-2H-benzo[b][1, 4]oxazin-7-yl)urea]
1000 to 10000 nM	O=C(Nc1ccc2c(c1)CCCC2)Nc1ccc2c(c1)OCC(=O)N2Cc1ccccc1 [Example 133, 1-(4-benzyl-3-oxo-3,4-dihydro-2H-benzo[b][1, 4]oxazin-7-yl)-3-(5,6,7,8-tetrahydro-naphthalen-2-yl)urea]
1000 to 10000 nM	CC(C)(C)c1nc(CN2C(=O)COc3cc(NC(=O)Nc4ccc5cc[nH]c5c4)ccc32)no1 [Example 134, l-(4-((5-(tert-butyl)-1,2,4-oxadiazol-3-yl)methyl)-3-oxo-3,4-dihydro-2H-benzo[b][, 4]oxazin-7-yl)-3-(1H-indol-6-yl)urea]
